Like-named read-outs stand apart in the source and are kept apart here.
What was measured:
[1] = system: 4T1 mouse mammary breast cancer cells; assay: Example O: syngeneic 4T1 breast cancer growth in Balb/C mice; assay type: in vivo; conditions: 4T1 in female Balb/C mice; for Final Tumor Volume: 120 μmol/kg/day oral gavage, day 2 to day 30; for Δ BW % / Final Body Weight / Initial Body Weight: 120 μmol/kg/day oral; for Δ BW %: final vs initial body weight; for Final Body Weight: in g (unit assumed); for Initial Body Weight: initial (baseline)
Protocol: Cancer models in mice generally either involve syngeneic murine tumors in immunocompetent mice or xenografts of human tumors in immunocompromised mice. […] Mice received test compounds by oral gavage in 1% hydroxypropylmethylcellulose from day 2 until day 30. Tumor growth was assessed by caliper measurements twice per week and tumor weight after necropsy, and body weight was also monitored. Treatment groups were: • 1. […] HPMC) • 2. CI (120 μmol/kg/day) • 3. BA (120 μmol/kg/day) • 4. CP (120 μmol/kg/day) • 5. CQ (120 μmol/kg/day) • 6. AA (120 μmol/kg/day) • 7. AC (120 μmol/kg/day)

[2] = system: imiquimod-induced dermatitis; conditions: for Ear thickness, Mean ± SEM: imiquimod-treated mice; for PASI Score, Mean ± SEM: scale 0-12
Protocol: Topical imiquimod (IMQ), a toll-like receptor agonist, has been established as a model of Inflammatory skin diseases including psoriasis and atopic dermatitis. Dermal inflammatory changes and gene expression in mice treated with topical imiquimod mimic human psoriasis and dermatitis (van der Fits et al., 2009; Swindell et al., 2011). The effect of a set of compounds of the invention were tested in a mouse model of imiquimod-induced dermatitis, with topical tacrolimus and dexamethasone as comparators for assessing safety and efficacy relative to standard agents used to treat dermatitis in humans.
Commercial 0.1% tacrolimus ointment (ProTopic™[…]) was also used as an active comparator. Petrolatum containing 10% ethanol was used as a control treatment.
Female Balb/C mice (8 weeks old) were randomized and divided into groups of 5 animals each. Polyethylene collars were affixed to the mice to prevent them from easily scratching their ears. 5% imiquimod was applied to both ears of each mouse (20 microliters per ear) daily for 5 days, and then every other day for the full duration of the study. […] On day 7 after initiation of imiquimod, treatment with topical agents was started. Both ears of each mouse were treated with test ointments, with one compound per mouse.
Ear thickness and PASI assessments (Psoriasis Area and Severity Index, a standard psoriasis scoring system) were recorded twice per week throughout the study. The PASI score comprises the sum of evaluations of swelling, erythema and scaling on scales from 0 to 4; the maximum PASI score is 12, and the minimum, in unaffected skin, is 0).

[3] = system: C. neoformans (serotype A) phagocytosed by THP-1-derived macrophages; assay: Example M: phagocytosed Cryptococcus neoformans antifungal screen in THP-1-derived macrophages; assay type: cell-based; conditions: for inhibition of fungal growth after phagocytosis and lysis, in words: 0.5, 1 or 2 μM; for IC50: after macrophage phagocytosis and lysis
Protocol: Two concentrations of macrophages (1×10^5 and 2×10^5/well) and a high concentration of C. neoformans (4×10^6/well) (MOI values of 40 and 20 respectively) were tested in this experiment.
THP-1 cells were adjusted to 5×10^5/ml or 1×10^6/ml in cRPMI+PMA
200 μl was transferred to a flat-bottomed 96-well dish (1×10^5 and 2×10^5/well) (48 hrs at 37 C) Media was removed and fresh cRPMI+PMA added (further 24 hrs at 37 C)
C. neoformans cells in DPBS were opsonized with human serum (60 mins at 30 C)
The opsonized yeast was washed (DPBS) and resuspended at 1×10^7/ml or 2×10^7/ml in cRPMI. 100 μl added to macrophage plate (1×10^6 and 2×10^6/well) (4 hrs at 37 C) washed ×4 with DPBS 100 μl of cRPMI was added to each well (18 hrs at 37 C) Compound AC was added to some wells. Media was removed, no wash, 25 μl 0.05% Triton X-100 added to lyse cells (3 mins RT rocking) 125 μl YPD broth was added and the plate incubated (24 hrs at 30 C then 24 hrs at 37 C) C. neoformans growth was determined on a Spectrophotometer (600 nm) after 24 and 48 hours
THP-1 cells (p15) grown in cRPMI [RPMI (Lonza 12-115F) plus 10% ΔFBS (Lonza DE14-701F)] were counted on a hemacytometer. Cells were spun at 1,800 rpm, RT for 5 mins, supernatant aspirated, pellet disturbed then adjusted to 5.0×10^5/ml and 1.0×10^6/ml in cRPMI supplemented with 0.2 μg/ml phorbol 12-myristate 13-acetate (PMA) (1 mg/ml in DMSO Sigma P8139). 200 μl aliquots of each cell concentration were transferred to […] (half a plate) of a flat-bottomed 96-well dish (1×10^5 and 2×10^5/well) and placed in a 37 C incubator for 48 hours, media was then removed and 200 μl of fresh cRPMI+PMA added. The plate was incubated for an additional 24 hours at 37 C then processed for yeast uptake.
In parallel to macrophage preparation, C. neoformans cells were grown from a single colony in 20 ml YPD broth at 30 C overnight. Absorbance of 1:10 dilution of the overnight (ON) culture gave 0.89 OD at 600 nm. Estimated concentration of this stock was 4×10^8 cells/ml (2×10^8 cells/ml gave an OD 600 nm of 0.426 in an earlier study Cryptococcus macrophage development plate 3 ML113012). The cells were washed with DPBS once and resuspended in 2 ml DPBS. 230 μl of this stock (˜60×10^7 cells) was brought up to 500 μl with DPBS in an Eppendorf tube. For opsonization, 500 μl of human serum (SIGMA S7023) was added and the tube incubated at 30 C for 60 mins with orbital shaking. […] A 1:200 dilution of cells was counted (4.25×10^6/ml), equivalent to 8.5×10^8/ml for the 1× stock. 470 μl of the 1× stock was brought up to 10 ml with cRPMI for a final concentration of 4×10^7/ml.
Media was aspirated from the prepared macrophage plate and 100 μl of the opsonized fungal cell suspension added to the wells. Media without yeast was added to triplicate wells for each macrophage concentration to provide background readings. Three empty wells (no macrophages) were seeded with fungus to serve as the wash control. The plates were then incubated at 37 C for 4 hours then washed 4 times with DPBS (plates were shakes briefly after addition of DPBS to increase wash efficiency). 144 μl of cRPMI was added to each well and 6 μl of 12.5 μM, 25 μM and 50 μM stocks of compounds AM, BM, AH, and AC added in triplicate for final concentrations of 0.5 μM, 1 μM or 2 μM. The plate was incubated at 37 C, 5% CO2 for 18 hours. Media was removed, 25 μl of 0.05% Triton X-100 (SIGMA T-9284) in DPBS was added to each well and the plate rocked at RT for 3 min, to lyse the cells. 125 μl YPD broth (KD Medical YLF-3260) was then added to each well and the plate placed in a 30 C incubator. C. neoformans cell growth was determined by measuring absorbance at 600 nm on a Spectrophotometer (Spectra Max Plus using program SoftMax Pro) after […].

[4] = topical ointment 0.06% active drug (dexamethasone 0.03%, tacrolimus 0.1%)
[5] = Cryptococcus neoformans, read-out: IC50 value (μM) for inhibition of fungal growth, 1 × 10^5 macrophages
[6] = Cryptococcus neoformans, read-out: IC50 value (μM) for inhibition of fungal growth, 2 × 10^5 macrophages

Structure (SMILES)	D BW (g) ([2]; mouse, in vivo)	D BW ([2]; mouse, in vivo) [g]	Hair growth on the imiquimod-affected head area, in words ([2]; mouse, in vivo)	Final Tumor Volume [1] [mm^3]	Δ BW % [1] [%]	Final Body Weight [1]	Initial Body Weight [1] [g]	Ear thickness, Mean ± SEM [2, 4]	Body Weight (mean ± SEM), Final ([2]; mouse, in vivo) [g]	Body Weight (mean ± SEM), Initial ([2]; mouse, in vivo) [g]	PASI Score, Mean ± SEM [2, 4]	Ear thickness, Mean ± SEM ([2]; topical ointment AF 0.6%)	PASI Score, Mean ± SEM ([2]; topical ointment AF 0.6%)	inhibition of fungal growth after phagocytosis and lysis, in words [3]	IC50 [3, 5] [µM]	IC50 [3, 6] [µM]	inhibition at 2 µM ([3]; Cryptococcus neoformans, Macrophage, at 2 μM, after phagocytosis, read-out: inhibition of the fungal growth) [%]
CCCCCCOc1ccc(CNc2ccnc3ccccc23)cc1 [AA, N-[4-(Hexyloxy)benzyl]quinolin-4-amine]				563 ± 175	−5.1	20.3 ± 1.3	21.4 ± 1.0										
CCCCOCCCCCCCCCCNc1ccnc2ccccc12 [AM, N-(10-Butoxydecyl)quinolin-4-amine]														clear dose dependent inhibition of fungal growth after phagocytosis and lysis	1.13	0.85	
CCCCCCOc1cccc(CNc2ccnc3ccccc23)c1 [Compound AC, N-[3-(Hexyloxy)benzyl]quinolin-4-amine]	+0.2 g			723 ± 185	−8.4	19.7 ± 1.1	21.5 ± 1.0	0.501 ± 0.030	21.3 ± 0.6	21.1 ± 0.7	7.150 ± 0.221			clear dose dependent inhibition of fungal growth after phagocytosis and lysis	1.29	1.35	
CCCCCCCCCCNc1ncnc2ccccc12 [Compound AH, N-(Decyl)quinazolin-4-amine]														clear dose dependent inhibition of fungal growth after phagocytosis and lysis	0.29	0.25	~100

Second part, led by results:

D BW (g) ([2]; mouse, in vivo)	D BW ([2]; mouse, in vivo) [g]	Hair growth on the imiquimod-affected head area, in words ([2]; mouse, in vivo)	Structure (SMILES)	Final Tumor Volume [1] [mm^3]	Δ BW % [1] [%]	Final Body Weight [1]	Initial Body Weight [1] [g]	Ear thickness, Mean ± SEM [2, 4]	Body Weight (mean ± SEM), Final ([2]; mouse, in vivo) [g]	Body Weight (mean ± SEM), Initial ([2]; mouse, in vivo) [g]	PASI Score, Mean ± SEM [2, 4]	Ear thickness, Mean ± SEM ([2]; topical ointment AF 0.6%)	PASI Score, Mean ± SEM ([2]; topical ointment AF 0.6%)	inhibition of fungal growth after phagocytosis and lysis, in words [3]	IC50 [3, 5] [µM]	IC50 [3, 6] [µM]	inhibition at 2 µM ([3]; Cryptococcus neoformans, Macrophage, at 2 μM, after phagocytosis, read-out: inhibition of the fungal growth) [%]
+0.4 g			COc1ccc(OCCCCCCCCNc2ncnc3ccccc23)cc1 [AE, N-[8-(4-Methoxyphenoxy)octyl]quinazolin-4-amine]					0.846 ± 0.023	21.3 ± 0.4	20.9 ± 0.5	11.550 ± 0.281						
+0.4 g	-0.4	hair growth was maintained	c1ccc(Oc2cccc(CNc3ccnc4ccccc34)c2)cc1 [AF, N-(3-Phenoxybenzyl)quinolin-4-amine]					0.355 ± 0.005			3.575 ± 0.158	0.390 ± 0.008	4.875 ± 0.155				
+0.1 g			c1ccc(Oc2cccc(CNc3ncnc4ccccc34)c2)cc1 [BM, N-(3-Phenoxybenzyl)quinazolin-4-amine]					0.577 ± 0.019	20.9 ± 0.6	20.8 ± 0.7	9.250 ± 0.183			clear dose dependent inhibition of fungal growth after phagocytosis and lysis	1.8	1.31	
